± gives the standard deviation of the averaged measurements.
How the values were obtained:
Test in all cases: apoptotic fraction of cells (caspase-3 NucView488 positive); higher = more apoptosis
WM115 = tested on: WM115
Method: (§1)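 BRAF V600E/D melanoma cell lines were seeded in 96-well plates, treated in 4 replicates with seven doses (3.16 nM to 3.16 uM) of RAF/MEK inhibitors for 24, 48 or 72 h, and stained with Hoechst 33342 (nuclei) and DEVD-NucView488 caspase-3 substrate. Plates were imaged on an Operetta. Relative viability is the cell count normalised to a DMSO-treated control; apoptosis fraction is the fraction of NucView488-positive nuclei.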

RVH421 = tested on: RVH421
Method: as §1

SKMEL28 = tested on: SKMEL28
Method: as §1

LOXIMVI = tested on: LOXIMVI
Method: as §1

K2 = tested on: K2
Method: as §1

WM1552C = tested on: WM1552C
Method: as §1

MZ7MEL = tested on: MZ7MEL
Method: as §1

CN(C)CCOc1ccc(-c2nc(-c3ccncc3)c(-c3ccc4c(c3)CC/C4=N\O)[nH]2)cc1
apoptotic fraction of cells
Conditions | 0.00316 µM | 0.01 µM | 0.0316 µM | 0.1 µM | 0.316 µM | 1 µM | 3.16 µM
K2, 24 h | 0.00595 ± 0.003 | 0.00244 ± 0.00095 | 0.00221 ± 0.00086 | 0.00264 ± 0.00069 | 0.0035 ± 0.00089 | 0.0129 ± 0.0066 | 0.0372 ± 0.013
K2, 48 h | 0.00193 ± 0.00073 | 0.00284 ± 0.00092 | 0.00174 ± 0.00056 | 0.00423 ± 0.00064 | 0.00888 ± 0.0019 | 0.0309 ± 0.011 | 0.0801 ± 0.023
LOXIMVI, 24 h | 0.0512 ± 0.005 | 0.0389 ± 0.014 | 0.0361 ± 0.0083 | 0.0658 ± 0.0071 | 0.0417 ± 0.012 | 0.0511 ± 0.014 | 0.0461 ± 0.012
LOXIMVI, 48 h | 0.143 ± 0.086 | 0.0806 ± 0.015 | 0.0671 ± 0.013 | 0.0471 ± 0.0067 | 0.0374 ± 0.0078 | 0.0404 ± 0.0046 | 0.0453 ± 0.0041
LOXIMVI, 72 h | 0.253 ± 0.074 | 0.188 ± 0.043 | 0.135 ± 0.025 | 0.0607 ± 0.013 | 0.0478 ± 0.018 | 0.0458 ± 0.0047 | 0.0628 ± 0.0058
MZ7MEL, 24 h | 0.0126 ± 0.0024 | 0.0117 ± 0.0056 | 0.0102 ± 0.0055 | 0.0118 ± 0.0058 | 0.0151 ± 0.0018 | 0.0236 ± 0.0062 | 0.0357 ± 0.0065
MZ7MEL, 48 h | 0.0138 ± 0.0015 | 0.019 ± 0.0044 | 0.0145 ± 0.0061 | 0.0141 ± 0.0027 | 0.0253 ± 0.0069 | 0.0408 ± 0.0078 | 0.0727 ± 0.015
MZ7MEL, 72 h | 0.017 ± 0.0043 | 0.0127 ± 0.0036 | 0.0173 ± 0.0057 | 0.0271 ± 0.0072 | 0.0568 ± 0.0073 | 0.0967 ± 0.016 | 0.143 ± 0.0086
RVH421, 24 h | 0.0543 ± 0.01 | 0.0588 ± 0.0063 | 0.0478 ± 0.0083 | 0.0495 ± 0.00077 | 0.0536 ± 0.012 | 0.062 ± 0.00089 | 0.0619 ± 0.01
RVH421, 48 h | 0.05 ± 0.0024 | 0.0534 ± 0.0099 | 0.0615 ± 0.014 | 0.0578 ± 0.0068 | 0.0567 ± 0.0061 | 0.0708 ± 0.013 | 0.0883 ± 0.015
RVH421, 72 h | 0.0342 ± 0.0022 | 0.0346 ± 0.0019 | 0.0361 ± 0.0019 | 0.044 ± 0.0038 | 0.0408 ± 0.0037 | 0.0371 ± 0.0035 | 0.033 ± 0.0053
SKMEL28, 48 h | 0.0386 ± 0.0058 | 0.034 ± 0.0031 | 0.0305 ± 0.002 | 0.0338 ± 0.0019 | 0.042 ± 0.0053 | 0.0432 ± 0.0014 | 0.0466 ± 0.0071
SKMEL28, 72 h | 0.0377 ± 0.00065 | 0.0332 ± 0.0076 | 0.0271 ± 0.0062 | 0.0305 ± 0.0039 | 0.0316 ± 0.0049 | 0.0381 ± 0.0067 | 0.259 ± 0.042
WM115, 24 h | 0.0434 ± 0.0055 | 0.0337 ± 0.0014 | 0.0512 ± 0.018 | 0.0473 ± 0.0081 | 0.0461 ± 0.0076 | 0.0874 ± 0.021 | 0.0958 ± 0.03
WM115, 48 h | 0.047 ± 0.0077 | 0.0376 ± 0.0068 | 0.0402 ± 0.0084 | 0.0491 ± 0.007 | 0.0688 ± 0.017 | 0.101 ± 0.023 | 0.131 ± 0.019
WM115, 72 h | 0.0298 ± 0.0018 | 0.031 ± 0.0045 | 0.0346 ± 0.0014 | 0.0452 ± 0.0079 | 0.0689 ± 0.016 | 0.144 ± 0.018 | 0.158 ± 0.015
WM1552C, 24 h | 0.059 ± 0.013 | 0.05804 ± 0.00024 | 0.0561 ± 0.01 | 0.0693 ± 0.0014 | 0.0643 ± 0.0076 | 0.0626 ± 0.0028 | 0.0608 ± 0.008
WM1552C, 48 h | 0.075 ± 0.0069 | 0.0725 ± 0.012 | 0.0713 ± 0.016 | 0.067 ± 0.013 | 0.0576 ± 0.0032 | 0.0631 ± 0.012 | 0.0655 ± 0.017
WM1552C, 72 h | 0.0862 ± 0.0034 | 0.0741 ± 0.0093 | 0.0679 ± 0.0047 | 0.0654 ± 0.0012 | 0.0685 ± 0.0037 | 0.0776 ± 0.0066 | 0.113 ± 0.014
